Assay results taken from the supplement of paper PMC8671470.

Columns and labels:
Settings in all cases: 72 h
HL-60 [1] = assay: cell viability (% survival relative to DMSO control); higher = less cytotoxic
Outline: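 For each screen, HL-60 cells in RPMI 1640 with 10% FBS carried either DMSO or 100 nM of one of three metabolic inhibitors while the full library was applied at five tenfold concentrations, 1–10,000 nM, in duplicate. Plates were 384-well and were kept 72 h at 37 °C, 5% CO2. Viability, measured by CellTiter-Glo, was normalised to wells with DMSO and with 10 μM proteasome inhibitor. Where area under the curve appears, it was fitted by four-parameter log-logistic models in drc and PharmacoGx.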

HL-60 [2] = assay: cell viability (% survival relative to DMSO control, bortezomib = 0%); higher = less cytotoxic
Outline: (§1)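 Fifteen myeloid leukaemia cell lines (10 AML, 5 CML) were seeded at a density titrated to the linear growth range into 384-well plates pre-printed with compounds at 1, 10, 100, 1000 or 10000 nM in duplicate. Plates were incubated for 72 h at 37 °C with 5% CO2. Viability was then read by CellTiter-Glo luminescence. Each value is percent survival averaged over the duplicates, with vehicle set to 100% and a 10 µM positive control to 0%.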

MOLM-13 = assay: as above
Outline: as §1

THP-1 = assay: as above
Outline: as §1

NOMO-1 [3] = assay: as above
Outline: as §1

HEL = assay: as above
Outline: as §1

BV-173 = assay: as above
Outline: as §1

Mono-Mac-6 [4] = assay: as above
Outline: as §1

MV4-11 [5] = assay: as above
Outline: as §1

LAMA-84 = assay: as above
Outline: as §1

ML-2 = assay: as above
Outline: as §1

SHI-1 = assay: as above
Outline: as §1

KG-1 = assay: as above
Outline: as §1

KCL-22 = assay: as above
Outline: as §1

KU-812 [6] = assay: as above
Outline: as §1

K-562 [7] = assay: as above
Outline: as §1

NOMO-1 [8] = tested on: NOMO-1
Outline: (§2)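 Fifteen myeloid leukaemia lines in RPMI 1640 were treated for 72 h at 37 °C and 5% CO2 with five tenfold doses from 1 to 10,000 nM, in duplicate. ATP luminescence was normalised to vehicle and to a positive control at 10 µM, then fitted with a four-parameter log-logistic model. The IC50 came from these fits.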

Mono-Mac-6 [9] = tested on: Mono-Mac-6
Outline: as §2

MV4-11 [10] = tested on: MV4-11
Outline: as §2

KU-812 [11] = tested on: KU-812
Outline: as §2

K-562 [12] = tested on: K-562
Outline: as §2

C=CC(=O)c1ccc(O)cc1 [4-Acryloylphenol]
cell viability [%], HL-60 [1]
Settings | 0.001 µM | 0.01 µM | 0.1 µM | 1 µM | 10 µM
co-treatment: AZD3965 100 nM | 104 | 99.2 | 88.2 | 99.4 | 63.5
co-treatment: DMSO vehicle | 102 | 101.3 | 100 | 102 | 92.8
co-treatment: GSK2194069 100 nM | 104 | 110 | 96.21 | 105 | 87.5
co-treatment: pictilisib 100 nM | 108 | 103 | 104 | 108 | 58.5

cell viability [%]
Settings | 1 nM | 10 nM | 100 nM | 1000 nM | 10000 nM
BV-173 | 82.2 | 86.6 | 104 | 93 | -1.1
HEL | 80 | 90.5 | 94.7 | 115 | 26.6
HL-60 [2] | 90 | 80.9 | 97.5 | 105 | 94.6
K-562 [7] | 86.2 | 85.5 | 101 | 114 | 66.7
KCL-22 | 86.1 | 89.5 | 102 | 124 | 28.2
KG-1 | 83.7 | 92.7 | 99.8 | 114 | 86.2
KU-812 [6] | 82.9 | 97.5 | 96.4 | 97.7 | 36.1
LAMA-84 | 86.7 | 91.9 | 99.9 | 105 | 56.7
ML-2 | 90 | 90.7 | 105 | 125 | 46.9
MOLM-13 | 81.7 | 79.4 | 83.1 | 124 | 78.7
MV4-11 [5] | 91 | 89.9 | 94.3 | 137 | -1.55
Mono-Mac-6 [4] | 86.3 | 99.1 | 111 | 103 | 54.6
NOMO-1 [3] | 88 | 92.6 | 107 | 102 | 2.21
SHI-1 | 99.7 | 92.7 | 102 | 114 | 103
THP-1 | 89.8 | 88.1 | 102 | 99.4 | 72.8

Settings | IC50 (cell viability) [µM]
K-562 [12] | > 10
KU-812 [11] | 7.96
MV4-11 [10] | 4.22
Mono-Mac-6 [9] | > 10
NOMO-1 [8] | 3.44

CCCCCN(C)CCC(O)(P(=O)(O)O)P(=O)(O)O [Ibandronate]
cell viability [%], HL-60 [1]
Settings | 0.001 µM | 0.01 µM | 0.1 µM | 1 µM | 10 µM
co-treatment: AZD3965 100 nM | 101 | 90.6 | 108.2 | 94.15 | 99.33
co-treatment: DMSO vehicle | 101 | 99.4 | 104 | 99.1 | 106
co-treatment: GSK2194069 100 nM | 98.3 | 98.1 | 104 | 94.4 | 99
co-treatment: pictilisib 100 nM | 103 | 87.2 | 101 | 94.3 | 99.9

cell viability [%]
Settings | 1 nM | 10 nM | 100 nM | 1000 nM | 10000 nM
BV-173 | 94.6 | 96 | 94.4 | 120 | 122
HEL | 107 | 105 | 109 | 95.5 | 114
HL-60 [2] | 92.4 | 111 | 103 | 90.5 | 142
K-562 [7] | 113 | 92 | 81.9 | 102 | 101
KCL-22 | 107 | 105 | 95.1 | 99.8 | 112
KG-1 | 103 | 108 | 96.5 | 115 | 111
KU-812 [6] | 88.2 | 90.9 | 89.9 | 110 | 105
LAMA-84 | 104 | 98.3 | 100 | 106 | 103
ML-2 | 94 | 110 | 97.2 | 114 | 112
MOLM-13 | 84.4 | 110 | 111 | 100 | 117
MV4-11 [5] | 95 | 90.5 | 104 | 86.6 | 116
Mono-Mac-6 [4] | 93.1 | 98.3 | 90 | 103 | 115
NOMO-1 [3] | 99.6 | 99.3 | 94.4 | 109 | 112
SHI-1 | 108 | 108 | 103 | 98 | 107
THP-1 | 94.7 | 102 | 103 | 113 | 115

Settings | IC50 (cell viability) [µM]
K-562 [12] | > 10
KU-812 [11] | > 10
MV4-11 [10] | > 10
Mono-Mac-6 [9] | > 10
NOMO-1 [8] | > 10
